What is called IC50 is the concentration that gives 50% inhibition.

This passage reports IC50 results from patent US10703757B2, “Compounds and methods for CDK8 modulation and indications therefor” (Plexxikon Inc., priority 2016, dated 2020).

The experiment deals with CDK8 (phosphorylation of STAT1 at serine 727 in A549 cells). Nature of the experiment: Cell based Phospho-STAT1 assay (IFNγ-stimulated A549 cells, AlphaLISA). To be noted: Homo sapiens, A549, A549 cells, phospho-STAT1 after IFNγ stimulation. The method, then: Determine Inhibitor Activity Against CDK8 in Cell Based Phospho-STAT1 Assay
This assay measures the phosphorylation of the CDK8 substrate STAT1 following Interferon-gamma (IFNγ) stimulation^1. The lung carcinoma cell line A549 is seeded in a 96 well plate in 50 μL of culture media at 5×10^4 cells/well and incubated at 37° C. overnight. Serial dilutions of compounds (in total volume of 50 μL culture media) are added to the cells and incubated at 37° C. for one hour. Human IFNγ (R&D Systems) is added to the cells at a 10 ng/mL final concentration. 4 wells containing DMSO treated cells stimulated with IFNγ serve as high controls and 4 wells containing DMSO treated unstimulated cells serve as low controls. After 30 minute IFNγ stimulation at 37° C., the culture media is removed and 50 μL of 1×AlphaLISA lysis buffer (PerkinElmer GA, USA) is added to each well. 5 μL cell lysate is transferred to a 384 well AlphaPlate (PerkinElmer GA, USA) and 5 μL containing 0.156 nM Phospho-STAT1 (Ser727) rabbit monoclonal antibody (Cell Signaling Technology), 0.156 nM Mouse Anti-STAT1 antibody (BD Transduction Laboratories), and 10 μg/mL Anti-rabbit IgG AlphaLISA acceptor beads (PerkinElmer GA, USA) diluted in 1× AlphaLISA immunoassay buffer (PerkinElmer GA, USA) is added to the cell lysates and incubated at room temperature for 90 minutes. 5 μL Anti-Mouse IgG Alpha donor beads diluted in 1× AlphaLISA immunoassay buffer (PerkinElmer GA, USA) is added to the reaction mixture and incubated at room temperature for 90 minutes. Upon excitation of these beads with laser light at 680 nm, singlet oxygen is produced. This singlet oxygen is rapidly quenched, unless the AlphaLISA Anti-Rabbit IgG acceptor beads are in close proximity, in which case a proximity signal can be measured at […]. In the presence of cellular CDK8 catalytic activity, there is a very strong proximity signal. Selective CDK8 inhibitors affect a decrease in this proximity signal through a decrease in phosphorylation of STAT1 at serine 727. The percentage inhibition at individual concentrations relative to high and low controls is calculated. The data are analyzed by using nonlinear regression to generate IC50 values.
A general note: Bead proximity is the source of the signal in Alpha formats.
For `Cn1cc(C#Cc2cnc3cccc(N4CCC(C#N)CC4)n23)cn1` [Compound P-0409, 1-(3-((1-methyl-1H-pyrazol-4-yl)ethynyl)imidazo[1,2-a]pyridin-5-yl)piperidine-4-carbonitrile], the IC50 is 0.1 to 1 µM.
The value for `FC(F)n1cc(-c2ccc(-c3cccn4ncc(-c5ccc(-c6cnn(C(F)F)c6)cc5)c34)cc2)cn1` [Compound P-0371, 3,4-bis(4-(1-(difluoromethyl)-1H-pyrazol-4-yl)phenyl)pyrazolo[1,5-a]pyridine] was 1 to 10 µM; that for `Cn1ncc2cc(-c3nnc4cccc(C5=CCC(C#N)CC5)n34)ccc21` (stereo not drawn) [Compound P-0345, 4-(3-(1-methyl-1H-indazol-5-yl)-[1,2,4]triazolo[4,3-a]pyridin-5-yl)cyclohex-3-ene-1-carbonitrile] was 1 to 10 µM.
`O=S1(=O)CCC(Oc2cccc3ncc(-c4ccc(-c5cnn(C(F)F)c5)cc4)n23)CC1` [Compound P-0349, 4-((3-(4-(1-(difluoromethyl)-1H-pyrazol-4-yl)phenyl)imidazo[1,2-a]pyradin-5-yl)oxy)tetrahydro-2H-thiopyran 1,1-dioxide]: the IC50 fell in the range of 0.1 to 1 µM.
For the compound `CC(C)(C#N)COc1cccc2ncc(-c3ccc(-c4cnn(C(F)F)c4)cc3)n12` [Compound P-0355, 3-((3-(4-(1-(difluoromethyl)-1H-pyrazol-4-yl)phenyl)imidazo[1,2-a]pyridin-5-yl)oxy)-2,2-dimethylpropanenitrile], the IC50 lay in the range of 0.1 to 1 µM.
The figure for `Cn1cc(C#Cc2cnc3cccc(C4=CCC(C#N)CC4)n23)cn1` (stereo not drawn) [Compound P-0374, 4-(3-((1-methyl-1H-pyrazol-4-yl)ethynyl)imidazo[1,2-a]pyridin-5-yl)cyclohex-3-ene-1-carbonitrile] is 0.0001 to 0.1 µM; for `Cn1ncc2ccc(-c3cnc4[nH]ccc4c3C3=CCC(C#N)CC3)cc21` (stereo not drawn) [Compound P-0340, 4-(5-(1-methyl-1H-indazol-6-yl)-1H-pyrrolo[2,3-b]pyridin-4-yl)cyclohex-3-ene-1-carbonitrile] it is 0.0001 to 0.1 µM; for `Cn1cc(-c2ccc(-c3cnn4cccc(-c5cnn(C(=O)OC(C)(C)C)c5)c34)cc2)cn1` [Compound P-0431, tert-butyl 4-(3-(4-(1-methyl-1H-pyrazol-4-yl)phenyl)pyrazolo[1,5-a]pyridin-4-yl)-1H-pyrazole-1-carboxylate] it is 1 to 10 µM.
The figure for `CNC(=O)C1CCN(c2cccc3ncc(-c4ccc(-c5cnn(C)c5)cc4)n23)CC1` [Compound P-0380, N-methyl-1-(3-(4-(1-methyl-1H-pyrazol-4-yl)phenyl)imidazo[1,2-a]pyridin-5-yl)piperidine-4-carboxamide] is 1 to 10 µM; for `N#CC1CCN(c2cccn3ncc(-c4ccc(-c5nc(C6CC6)no5)cc4)c23)CC1` [Compound P-0423, 1-(3-(4-(3-cyclopropyl-1,2,4-oxadiazol-5-yl)phenyl)pyrazolo[1,5-a]pyridin-4-yl)piperidine-4-carbonitrile] it is 0.0001 to 0.1 µM; for `Cn1cc(-c2ccc(-c3cnn4cccc(C#CC5(O)COC5)c34)cc2)cn1` [Compound P-0368, 3-((3-(4-(1-methyl-1H-pyrazol-4-yl)phenyl)pyrazolo[1,5-a]pyridin-4-yl)ethynyl)oxetan-3-ol] it is 0.0001 to 0.1 µM.
`CC(C)(C)n1ncc2cc(-c3cnc4[nH]ccc4c3C3=CCC(C#N)CC3)ccc21` (stereo not drawn) [Compound P-0344, 4-(5-(1-(tert-butyl)-1H-indazol-5-yl)-1H-pyrrolo[2,3-b]pyridin-4-yl)cyclohex-3-ene-1-carbonitrile] yielded an IC50 of 0.1 to 1 µM.
Compound `Cn1cc(-c2ccc(-c3cnc4cccc(C5=CCN(S(C)(=O)=O)CC5)n34)cc2)cn1` [Compound P-0419, 3-(4-(1-methyl-1H-pyrazol-4-yl)phenyl)-5-(1-(methylsulfonyl)-1,2,3,6-tetrahydropyridin-4-yl)imidazo[1,2-a]pyridine] returned an IC50 of 0.1 to 1 µM.
`N#CC1CCN(c2cccc3ncc(-c4ccc(CNC(=O)c5cccnc5)cc4)n23)CC1` [Compound P-0448, N-(4-(5-(4-cyanopiperidin-1-yl)imidazo[1,2-a]pyridin-3-yl)benzyl)nicotinamide] returned an IC50 of 1 to 10 µM.
The value for `COC(=O)N1CCC(Oc2cccc3ncc(-c4ccc(-c5cnn(C(F)F)c5)cc4)n23)CC1` [Compound P-0291, methyl 4-((3-(4-(1-(difluoromethyl)-1H-pyrazol-4-yl)phenyl)imidazo[1,2-a]pyridin-5-yl)oxy)piperidine-1-carboxylate] was 0.1 to 1 µM.
The figure for `CC(C)(O)C#Cc1cccn2ncc(-c3ccc(Oc4ccccc4)cc3)c12` [Compound P-0410, 2-methyl-4-(3-(4-phenoxyphenyl)pyrazolo[1,5-a]pyridin-4-yl)but-3-yn-2-ol] is 1 to 10 µM; for `Cn1cc(-c2ccc(-c3cnc4cccc(N5CCN(c6nccs6)CC5)n34)cc2)cn1` [Compound P-0383, 2-(4-(3-(4-(1-methyl-1H-pyrazol-4-yl)phenyl)imidazo[1,2-a]pyridin-5-yl)piperazin-1-yl)thiazole] it is 1 to 10 µM.
The figure for `Cn1ncc2cc(-c3cnn4cccc(N5CCC(C#N)(c6ccccn6)CC5)c34)ccc21` [Compound P-0364, 1-(3-(1-methyl-1H-indazol-5-yl)pyrazolo[1,5-a]pyridin-4-yl)-4-(pyridin-2-yl)piperidine-4-carbonitrile] is 0.0001 to 0.1 µM.
Turning to `Cn1cc(-c2ccc(-c3cnn4cccc(N5CCC(C#N)CC5)c34)cc2)cn1` [Compound P-0422, 1-(3-(4-(1-methyl-1H-pyrazol-4-yl)phenyl)pyrazolo[1,5-a]pyridin-4-yl)piperidine-4-carbonitrile], the IC50 is 0.0001 to 0.1 µM.
Regarding `Cn1cc(-c2ccc(-c3cnc4cccc(NCc5ccccc5)n34)cc2)cn1` [Compound P-0389, N-benzyl-3-(4-(1-methyl-1H-pyrazol-4-yl)phenyl)imidazo[1,2-a]pyridin-5-amine], the IC50 was in the range of 1 to 10 µM.
The value for `Cn1ncc2cc(-c3cnc4[nH]ccc4c3C#CC(C)(C)O)ccc21` [Compound P-0343, 2-methyl-4-(5-(1-methyl-1H-indazol-5-yl)-1H-pyrrolo[2,3-b]pyridin-4-yl)but-3-yn-2-ol] was 0.1 to 1 µM; that for `Cc1nn(C)c2ccc(-c3cnc4[nH]ccc4c3C3=CCC(C#N)CC3)cc12` (stereo not drawn) [Compound P-0342, 4-(5-(1,3-dimethyl-1H-indazol-5-yl)-1H-pyrrolo[2,3-b]pyridin-4-yl)cyclohex-3-ene-1-carbonitrile] was 0.0001 to 0.1 µM.
The figure for `Cn1cc(-c2ccc(-c3cnc4cccc(N5CCN(c6cccnc6)CC5)n34)cc2)cn1` [Compound P-0386, 3-(4-(1-methyl-1H-pyrazol-4-yl)phenyl)-5-(4-(pyridin-3-yl)piperazin-1-yl)imidazo[1,2-a]pyridine] is 0.0001 to 0.1 µM; for `Cn1cc(-c2ccc(-c3cnc4cccc(N5CCC(C(O)c6cccnc6)CC5)n34)cc2)cn1` (stereo not drawn) [Compound P-0384, (1-(3-(4-(1-methyl-1H-pyrazol-4-yl)phenyl)imidazo[1,2-a]pyridin-5-yl)piperidin-4-yl)(pyridin-3-yl)methanol] it is 1 to 10 µM; for `Cn1cc(-c2ccc(-c3c[nH]c4ncc(Br)c(N5CCC(C#N)CC5)c34)cc2)cn1` [Compound P-0432, 1-[5-bromo-3-[4-(1-methylpyrazol-4-yl)phenyl]-H-pyrrolo[2,3-b]pyridin-4-yl]piperidine-4-carbonitrile] it is 1 to 10 µM.
The value for `FC(F)n1cc(-c2ccc(-c3cnc4cccc(OC5CCNCC5)n34)cc2)cn1` [Compound P-0305, 3-(4-(1-(difluoromethyl)-1H-pyrazol-4-yl)phenyl)-5-(piperidin-4-yloxy)imidazo[1,2-a]pyridine] was 1 to 10 µM.
In turn, `Cn1cc(C#Cc2cnn3cccc(C4=CCC(C#N)CC4)c23)cn1` (stereo not drawn) [Compound P-0433, 4-[3-[2-(1-methylpyrazol-4-yl)ethynyl]pyrazolo[1,5-a]pyridin-4-yl]cyclohex-3-ene-1-carbonitrile] gave an IC50 of 0.0001 to 0.1 µM.
The figure for `Cn1cc(-c2ccc(-c3cnc4cccc(N5CCOCC5)n34)cc2)cn1` [Compound P-0395, 4-(3-(4-(1-methyl-1H-pyrazol-4-yl)phenyl)imidazo[1,2-a]pyridin-5-yl)morpholine] is 1 to 10 µM; for `Cn1cc(-c2ccc(-c3cnn4cccc(C#CC(O)c5ccccc5)c34)cc2)cn1` (stereo not drawn) [Compound P-0426, 3-[3-[4-(1-methylpyrazol-4-yl)phenyl]pyrazolo[1,5-a]pyridin-4-yl]-1-phenyl-prop-2-yn-1-ol] it is 0.0001 to 0.1 µM; for `Cn1cc(-c2ccc(C3=C4C(C5CCC(C#N)CC5)=CC=CN4NC3)cc2)cn1` (stereo not drawn) [Compound P-0302, 4-(3-(4-(1-methyl-1H-pyrazol-4-yl)phenyl)-1,2-dihydropyrazolo[1,5-a]pyridin-4-yl)cyclohexane-1-carbonitrile] it is 1 to 10 µM.
